Source: article PMC4109836, “Analysis of the co-operative interaction between the allosterically regulated proteins GK and GKRP using tryptophan fluorescence” (Biochemical Journal, 2014)
Residue numbers refer to the chain shown, from its start. In names and notes the source's numbering stands. Where two headings read alike, the source gives them in different places. Blank lines part the entries; values can stand above or below the molecule they belong to.

What was measured:
GK-WT [1] = target: T1, GK-WT (Homo sapiens, UniProt P35557); parameters: method as in ref 4 (a number printed in a supplementary file, which may have a reference list of its own: not looked up in the article's list); conditions: read-out: ATP Km; cited from earlier work
T1 construct: GST (cleaved yes); made in house; host or cells: Escherichia coli
T1 sequence (P35557 1-465): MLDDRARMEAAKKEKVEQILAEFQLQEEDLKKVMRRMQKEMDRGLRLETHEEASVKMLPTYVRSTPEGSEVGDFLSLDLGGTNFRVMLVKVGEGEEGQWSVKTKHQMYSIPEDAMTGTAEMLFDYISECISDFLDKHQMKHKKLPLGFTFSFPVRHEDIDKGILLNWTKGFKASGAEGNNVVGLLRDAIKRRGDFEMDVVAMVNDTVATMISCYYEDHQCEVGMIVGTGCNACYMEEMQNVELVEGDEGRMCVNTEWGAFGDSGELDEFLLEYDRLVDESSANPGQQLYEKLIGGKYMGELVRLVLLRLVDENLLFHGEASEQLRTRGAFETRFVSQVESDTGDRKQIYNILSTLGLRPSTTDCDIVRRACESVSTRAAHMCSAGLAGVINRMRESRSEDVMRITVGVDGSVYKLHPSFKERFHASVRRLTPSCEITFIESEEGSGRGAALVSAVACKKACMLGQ

GK-W99R/W167F/W257F = target: T2, GK-W99R/W167F/W257F (Homo sapiens, UniProt P35557, W167F/W257F/W99R); parameters: method as in ref 4 (a number printed in a supplementary file, which may have a reference list of its own: not looked up in the article's list); conditions: read-out: ATP Km; cited from earlier work
T2 construct: GST (cleaved yes); made in house; host or cells: Escherichia coli
T2 sequence (P35557 1-465 W99R/W167F/W257F): T1 sequence (P35557 1-465) with W99R, W167F, W257F

[2] = target: T3, hGKRP (0.3 μM)–GK-W99R/W167F/W257F (1 μM) complex, GKRP-P446L (Homo sapiens, UniProt P35557+Q14397, P446L/W167F/W257F/W99R); assay: Ligand binding by / disassembly of GKRP-P446L–GK-W99R/W167F/W257F complex by TF of hGKRP; conditions: ligand titration of 3:1 GK–GKRP-P446L complex, 20°C
T3 construct: FLAG; GST (cleaved yes); made in house; host or cells: Escherichia coli
T3 sequence (Q14397 1-625 P446L): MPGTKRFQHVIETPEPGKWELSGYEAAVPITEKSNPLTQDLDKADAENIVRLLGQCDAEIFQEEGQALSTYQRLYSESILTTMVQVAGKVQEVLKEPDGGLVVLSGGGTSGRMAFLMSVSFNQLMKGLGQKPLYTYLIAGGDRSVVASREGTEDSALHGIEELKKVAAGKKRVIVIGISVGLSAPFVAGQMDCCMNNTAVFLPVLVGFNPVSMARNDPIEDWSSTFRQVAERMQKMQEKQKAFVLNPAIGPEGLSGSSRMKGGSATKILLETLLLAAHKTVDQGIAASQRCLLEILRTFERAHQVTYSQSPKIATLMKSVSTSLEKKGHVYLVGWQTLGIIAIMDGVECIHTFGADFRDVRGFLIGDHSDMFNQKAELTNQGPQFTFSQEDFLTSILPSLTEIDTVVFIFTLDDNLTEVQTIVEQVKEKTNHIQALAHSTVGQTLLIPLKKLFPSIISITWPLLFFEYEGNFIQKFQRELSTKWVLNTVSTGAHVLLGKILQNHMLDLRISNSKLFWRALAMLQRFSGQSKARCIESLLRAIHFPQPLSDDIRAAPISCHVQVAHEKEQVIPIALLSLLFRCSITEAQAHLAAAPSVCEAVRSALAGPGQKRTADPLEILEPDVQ
T3 sequence (P35557 1-465 W99R/W167F/W257F): T1 sequence (P35557 1-465) with W99R, W167F, W257F
Protocol: (§1) Spectra were measured with a Fluorolog-3-21 Jobin-Yvon Spex Instrument SA equipped with a 450 W Xenon lamp for excitation and a cooled R2658P Hamamatsu photomultiplier tube for detection. For all measurements, 90° geometry was employed and 295 nm excitation wavelengths were used to observe fluorescence emission in the 300–500 nm range. For TF, spectra slit width was set to provide a bandpath of 3 nm for excitation and 3 nm for emission. Spectra were corrected for instrumental response using Spex instrument software. A thermostatically controlled cell holder maintained sample temperature at 20°C. A thermocoupler was used to measure sample temperature. The buffer used contained 20 mM phosphate, 50 mM KCl, 1 mM EDTA and 1 mM DTT (pH 7.2).
(§2) Fluorescence data were obtained via the stepwise addition of the appropriate amount of non-fluorescent GK-W99R/W167F/W257F to GKRP in a fluorescence cuvette. […] The change in GKRP protein fluorescence during titration was also measured using time-dependent scans. A manual procedure was used such that a typical titration with 10–12 additions required 20–25 min to perform. The same buffer as described above was routinely used unless stated otherwise. The bandpath was 0.5 nm at 295 nm for excitation and 12 nm at 340 nm for emission. […] For some graphical presentations the linear form of the Hill equation was used: log[F/(Fsat−F)]=H log x−H log KD [46].

GKRP-WT [3] = target: T4, GKRP-WT (Homo sapiens, UniProt Q14397); assay: Ligand binding to free GKRP-WT measured by TF of GKRP; conditions: ligand alone; for H (Hill number) / ΔF (relative fluorescence change at 340 nm) / Kd: 0.3 μM GKRP-WT, 20°C; for Kd: read-out: S0.5
T4 construct: FLAG; made in house; host or cells: Escherichia coli
T4 sequence (Q14397 1-625): T3 sequence (Q14397 1-625 P446L) with L446P

[4] = target: T5, hGKRP (0.3 μM)–GK-W99R/W167F/W257F (1 μM) complex, GKRP-WT (Homo sapiens, UniProt P35557+Q14397, W167F/W257F/W99R); assay: Ligand binding by / disassembly of GKRP-WT–GK-W99R/W167F/W257F complex by TF of hGKRP; conditions: ligand titration of 3:1 GK–GKRP-WT complex, 20°C
T5 construct: FLAG; GST (cleaved yes); made in house; host or cells: Escherichia coli
T5 sequence (Q14397 1-625): T3 sequence (Q14397 1-625 P446L) with L446P
T5 sequence (P35557 1-465 W99R/W167F/W257F): T1 sequence (P35557 1-465) with W99R, W167F, W257F
Protocol: as §1, §2

GKRP-P446L [5] = target: T6, GKRP-P446L (Homo sapiens, UniProt Q14397, P446L); assay: Ligand binding to free GKRP-P446L measured by TF of GKRP; conditions: ligand alone; for H (Hill number) / ΔF (relative fluorescence change at 340 nm) / Kd: 0.3 μM GKRP-P446L, 20°C; for Kd: read-out: S0.5
T6 construct: FLAG; made in house; host or cells: Escherichia coli
T6 sequence (Q14397 1-625 P446L): T3 sequence (Q14397 1-625 P446L)

GKRP-WT [6] = target: T7, GKRP-WT (Homo sapiens, UniProt P35557+Q14397, W167F/W257F/W99R); assay: Titration of GKRP-WT with GK-W99R/W167F/W257F (GK–GKRP complex assembly) by TF; format: binding; conditions: saturating levels of F6P;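 note: tryptophan fluorescence of GKRP titrated with GK, excitation 295 nm, emission read at 340 nm, phosphate buffer pH 7.2, Hill equation fitting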
T7 construct: FLAG; GST (cleaved yes); made in house; host or cells: Escherichia coli
T7 sequence (Q14397 1-625): T3 sequence (Q14397 1-625 P446L) with L446P
T7 sequence (P35557 1-465 W99R/W167F/W257F): T1 sequence (P35557 1-465) with W99R, W167F, W257F

GKRP-P446L [7] = target: T8, GKRP-P446L (Homo sapiens, UniProt P35557+Q14397, P446L/W167F/W257F/W99R); assay: Titration of GKRP-P446L with GK-W99R/W167F/W257F (GK–GKRP complex assembly) by TF; format: binding; conditions: saturating levels of F6P
T8 construct: FLAG; GST (cleaved yes); made in house; host or cells: Escherichia coli
T8 sequence (Q14397 1-625 P446L): T3 sequence (Q14397 1-625 P446L)
T8 sequence (P35557 1-465 W99R/W167F/W257F): T1 sequence (P35557 1-465) with W99R, W167F, W257F
Protocol: as §1, §2

GK-WT [8] = target: T1, GK-WT; parameters: method as in ref 18 (a number printed in a supplementary file, which may have a reference list of its own: not looked up in the article's list); conditions: read-out: Kd for MH, cited from earlier work
subjects with T2D = system: subjects with T2D; parameters: method as in PMID 21994424; conditions: cited from earlier work
[9] = Structural stability from urea denaturation curves (TF); format: physicochemical, human; conditions: buffer pH 7.2, 20°C; ±0.05

Molecule: Nc1ncnc2c1ncn2[C@@H]1O[C@H](COP(=O)(O)OP(=O)(O)OP(=O)(O)O)[C@@H](O)[C@H]1O [ATP]
Km (GK-WT [1]): 490 µM
Km (GK-W99R/W167F/W257F): 1960 µM

H [2]: 1
ΔF (relative fluorescence change at 340 nm) ([2]; glucose curve biphasic (two phases)): −0.095
Kd ([2]; read-out: Kd (apparent)): 298 µM
H (Hill number) (GKRP-WT [3]): 1
ΔF (relative fluorescence change at 340 nm) (GKRP-WT [3]): −0.04
Kd (GKRP-WT [3]): 65 µM
effect on the TF signal of GKRP-WT (GKRP-WT [3]): decrease
H [4]: 1
ΔF (relative fluorescence change at 340 nm) [4]: −0.086
Kd ([4]; read-out: Kd (apparent)): 127 µM
H (Hill number) (GKRP-P446L [5]): 1
ΔF (relative fluorescence change at 340 nm) (GKRP-P446L [5]): −0.08
Kd (GKRP-P446L [5]): 139 µM
effect on the TF signal of GKRP-P446L (GKRP-P446L [5]): decrease
Molecule: O=C(COP(=O)([O-])[O-])[C@@H](O)[C@H](O)[C@H](O)CO.[Na+].[Na+] [F1P, D-fructose 1-phosphate sodium salt]

effect on the binding of GKRP-WT to GK (GKRP-WT [6]): no significant effect
H (Hill number) (GKRP-WT [3]): 3.6
ΔF (relative fluorescence change at 340 nm) (GKRP-WT [3]): 0.04
Kd (GKRP-WT [3]): 278 µM
effect on the TF signal of GKRP-WT (GKRP-WT [3]): increase
H (Hill number) (GKRP-P446L [5]): 2.94
ΔF (relative fluorescence change at 340 nm) (GKRP-P446L [5]): 0.07
Kd (GKRP-P446L [5]): 242 µM
effect on the TF signal of GKRP-P446L (GKRP-P446L [5]): increase
Molecule: O=C(CO)[C@@H](O)[C@H](O)[C@H](O)COP(=O)([O-])[O-].[Na+].[Na+] [F6P, D-fructose 6-phosphate disodium salt]
effect on the binding of GKRP-P446L to GK (GKRP-P446L [7]): increased the affinity of GKRP-P446L for GK

Molecule: O=C(CO)[C@@H](O)[C@@H](O)[C@H](O)[C@H](O)CO [MH, D-mannoheptulose]
Kd (GK-WT [8]; in the presence of GKA (20 μM)): 1000 µM
Kd (GK-WT [8]; without GKA): 17000 µM

Molecule: CCS(=O)(=O)c1ccc(Oc2cc(O[C@@H](C)CO)cc(C(=O)Nc3ccn(C)n3)c2)cn1 [MK0941]
clinical effect, higher doses (subjects with T2D; higher doses of the drug): fast-onset transient effects associated with an increase in blood lipids and cardiovascular side effects
clinical effect, low dose (subjects with T2D; low dose of the drug): slow-onset long-lasting beneficial effect

B1: GKRP-WT: recombinant human wild-type GK regulatory protein (protein)
chain: T3 sequence (Q14397 1-625 P446L) with L446P
modifications: left off: FLAG, end not stated, state not stated
notes: recombinant human wild-type GK regulatory protein
ΔG(H2O) from urea denaturation curves [9]: 1.56 kcal/mol

B2: GKRP-P446L: recombinant human GKRP variant P446L (protein)
chain: T3 sequence (Q14397 1-625 P446L)
modifications: left off: FLAG, end not stated, state not stated
ΔG(H2O) from urea denaturation curves [9]: 1.55 kcal/mol
